Changes are numbered by the printed parent chain.
Columns and labels:
CYP2A6*1 (wild-type) [1] = target: T1, CYP2A6*1 (wild-type) (Homo sapiens, UniProt P11509); test: CYP2A6 inactivation assay (fluorescence-based coumarin 7-hydroxylase assay); type: biochemical; conditions: pH 7.4, probe coumarin (10 µM; 7-hydroxylation), 8-MOP 1.0 µM, 10 min pre-incubation with NADPH generating system vs no pre-incubation, read-out: increased percentage in inhibition with pre-incubation
T1 construct: made in house; host or cells: E. coli (membrane fractions; pCW-CYP2A6*1 co-expressed with pACYC-OxR)
T1 sequence (P11509 1-494): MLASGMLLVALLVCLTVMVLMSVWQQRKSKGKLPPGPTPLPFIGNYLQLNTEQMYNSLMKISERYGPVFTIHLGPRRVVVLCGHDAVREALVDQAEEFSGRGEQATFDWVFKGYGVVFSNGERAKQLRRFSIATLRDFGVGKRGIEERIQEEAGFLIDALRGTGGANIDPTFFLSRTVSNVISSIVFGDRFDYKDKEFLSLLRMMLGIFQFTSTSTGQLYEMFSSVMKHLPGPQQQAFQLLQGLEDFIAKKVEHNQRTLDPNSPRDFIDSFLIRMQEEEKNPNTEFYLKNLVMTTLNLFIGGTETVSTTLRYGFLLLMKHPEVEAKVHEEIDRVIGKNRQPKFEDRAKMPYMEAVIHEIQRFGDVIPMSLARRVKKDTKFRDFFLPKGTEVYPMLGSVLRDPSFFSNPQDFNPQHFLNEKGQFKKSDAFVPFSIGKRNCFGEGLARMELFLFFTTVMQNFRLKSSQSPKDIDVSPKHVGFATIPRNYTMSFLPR
Description: (§1) A fully functional P450 monooxygenase system requires collaboration of the CYP of interest in concert with the essential coenzyme, NADPH-CYP oxidoreductase (OxR). Here, we co-expressed the individual CYP2A6 plasmid constructs – pCW-CYP2A6, pCW-CYP2A6*15, pCW-CYP2A6*16, pCW-CYP2A6*21 or pCW-CYP2A6*22, with pACYC-OxR plasmid which allowed for OxR co-expression that was important for CYP2A6 catalytic function. Preparation of membrane fragments expressing holoenzyme protein of respective CYP2A6 construct was in accordance to the established method described previously. Membrane fractions were stored at −80°C in a 1∶1 mixture of pH 7.6 TES (100 mM Tris/0.5 mM EDTA/500 mM sucrose buffer) and ice-cold distilled water before use.
(§2) Assessment of coumarin 7-hydroxylation is a signature marker for CYP2A6 metabolic assay. To evaluate the inhibitory potency of 8-MOP on the kinetic activity of CYP2A6 variants, we adopted a fluorescence-based coumarin 7-hydroxylase assay upon minor modifications of an established protocol, [13]. […] NADPH generating system (1 mM NADP, 10 mM G6P, 2IU G6PDH and 5 mM MgCl2) in 0.1 M phosphate buffer, pH 7.4 was added subsequently to the incubation mixture to initiate the reactions. […] Enzyme inhibition reactions were allowed in 25 minutes of incubation and later terminated by 500 mM Tris base. The experimental conditions were selected such that under conditions with varying activities of CYP2A6 proteins, no more than 20% of the substrate was converted to 7-hydroxycoumarin. The fluorescent metabolite was detected by Tecan Infinite™ 200 series microplate reader (Männerdorf, Switzerland) at excitation wavelength 365 nm and emission wavelength 450 nm and further estimated based on the standard curve of 7-hydroxycoumarin which was constructed in the range of 15.63–2000 pmol/well previously (data not shown). Current assay also included control for fluorescent interference which consisted of inhibitor (at a concentration equal to the inhibition incubations) and bacterial control membranes.

CYP2A6*15 [2] = target: T2, CYP2A6*15 (Homo sapiens, UniProt P11509, K194E); test: as above; type: biochemical; conditions: pH 7.4, probe coumarin (10 µM; 7-hydroxylation), 8-MOP 1.0 µM, 10 min pre-incubation with NADPH generating system vs no pre-incubation, read-out: increased percentage in inhibition with pre-incubation
T2 construct: made in house; host or cells: E. coli (membrane fractions; pCW-CYP2A6*15 co-expressed with pACYC-OxR)
T2 sequence (P11509 1-494 K194E): T1 sequence (P11509 1-494) with K194E
Description: as §1, §2

CYP2A6*16 [3] = target: T3, CYP2A6*16 (Homo sapiens, UniProt P11509, R203S); test: as above; type: biochemical; conditions: pH 7.4, probe coumarin (10 µM; 7-hydroxylation), 8-MOP 1.0 µM, 10 min pre-incubation with NADPH generating system vs no pre-incubation, read-out: increased percentage in inhibition with pre-incubation
T3 construct: made in house; host or cells: E. coli (membrane fractions; pCW-CYP2A6*16 co-expressed with pACYC-OxR)
T3 sequence (P11509 1-494 R203S): T1 sequence (P11509 1-494) with R203S
Description: as §1, §2

CYP2A6*21 [4] = target: T4, CYP2A6*21 (Homo sapiens, UniProt P11509, K476R); test: as above; type: biochemical; conditions: pH 7.4, probe coumarin (10 µM; 7-hydroxylation), 8-MOP 1.0 µM, 10 min pre-incubation with NADPH generating system vs no pre-incubation, read-out: increased percentage in inhibition with pre-incubation
T4 construct: made in house; host or cells: E. coli (membrane fractions; pCW-CYP2A6*21 co-expressed with pACYC-OxR)
T4 sequence (P11509 1-494 K476R): T1 sequence (P11509 1-494) with K476R
Description: as §1, §2

CYP2A6*22 [5] = target: T5, CYP2A6*22 (Homo sapiens, UniProt P11509, D158E/L160I); test: as above; type: biochemical; conditions: pH 7.4, probe coumarin (10 µM; 7-hydroxylation), 8-MOP 1.0 µM, 10 min pre-incubation with NADPH generating system vs no pre-incubation, read-out: increased percentage in inhibition with pre-incubation
T5 construct: made in house; host or cells: E. coli (membrane fractions; pCW-CYP2A6*22 co-expressed with pACYC-OxR)
T5 sequence (P11509 1-494 D158E/L160I): T1 sequence (P11509 1-494) with D158E, L160I
Description: as §1, §2

CYP2A6*1 (wild-type) [6] = target: T1, CYP2A6*1 (wild-type); parameters: method as in PMID 20139165; conditions: coumarin 7-hydroxylation, mean ± SD n=3; cited from earlier work
CYP2A6*15 [7] = target: T2, CYP2A6*15; parameters: method as in PMID 20139165; conditions: coumarin 7-hydroxylation, mean ± SD n=3; cited from earlier work
CYP2A6*16 [8] = target: T3, CYP2A6*16; parameters: method as in PMID 20139165; conditions: coumarin 7-hydroxylation, mean ± SD n=3; cited from earlier work
CYP2A6*21 [9] = target: T4, CYP2A6*21; parameters: method as in PMID 20139165; conditions: coumarin 7-hydroxylation, mean ± SD n=3; cited from earlier work
CYP2A6*22 [10] = target: T5, CYP2A6*22; parameters: method as in PMID 20139165; conditions: coumarin 7-hydroxylation, mean ± SD n=3; cited from earlier work
CYP2A6 K476E = system: CYP2A6 K476E; parameters: method as in PMID 16207711; conditions: towards coumarin; cited from earlier work

inhibition at 35 min, 1 µM (CYP2A6*1 (wild-type) [1]) | inhibition at 35 min, 1 µM (CYP2A6*15 [2]) | inhibition at 35 min, 1 µM (CYP2A6*16 [3]) | inhibition at 35 min, 1 µM (CYP2A6*21 [4]) | inhibition at 35 min, 1 µM (CYP2A6*22 [5]) | SMILES | Km (CYP2A6*1 (wild-type) [6]) | Km (CYP2A6*15 [7]) | Km (CYP2A6*16 [8]) | Km (CYP2A6*21 [9]) | Km (CYP2A6*22 [10]) | catalytic efficiency, % of the wild type kcat/Km value (CYP2A6 K476E)
35% | 32% | 31% | 24% | 23% | COc1c2occc2cc2ccc(=O)oc12 [8-methoxypsoralen] | – | – | – | – | – | –
– | – | – | – | – | O=c1ccc2ccccc2o1 [coumarin] | 10.6 ± 1.58 µM | 22.1 ± 1.29 µM | 10.5 ± 1.45 µM | 16.4 ± 0.41 µM | 31.2 ± 2.22 µM | ~8%

From publication PMC3903516 (PLoS ONE, 2014)
